Consider seven compounds from patent US20210220370A1, “SELECTIVE HDAC8 INHIBITORS AND THEIR USES” (HOCHSCHULE DARMSTADT, priority 2015, published 2021).

Bounds are passed on as bounds.

One assay addresses HDAC1 (Homo sapiens, UniProt Q13547). As to the kind of experiment: HDAC1 colorimetric assay, substrate Boc-Lys(Ac)-AMC. Conditions: IC50 HDAC1, Table 1.
In assay [1] the test system is uterine leiomyosarcoma cell line SKUT-1. As to the kind of experiment: Growth inhibition of cancer cell line, resazurin assay. It counts as cell-based, Human. Conditions: Homo sapiens, SK-UT-1; Table 2, resazurin assay.
For another assay, the target named is HDAC3 (Homo sapiens, UniProt O15379). In words: HDAC3 colorimetric assay, substrate Boc-Lys(Ac)-AMC. It is filed as biochemical. As to conditions: Table 1.
A further assay has as its target T1, HDAC7 (Homo sapiens, UniProt Q8WUI4).
T1 sequence (Q8WUI4 1-952): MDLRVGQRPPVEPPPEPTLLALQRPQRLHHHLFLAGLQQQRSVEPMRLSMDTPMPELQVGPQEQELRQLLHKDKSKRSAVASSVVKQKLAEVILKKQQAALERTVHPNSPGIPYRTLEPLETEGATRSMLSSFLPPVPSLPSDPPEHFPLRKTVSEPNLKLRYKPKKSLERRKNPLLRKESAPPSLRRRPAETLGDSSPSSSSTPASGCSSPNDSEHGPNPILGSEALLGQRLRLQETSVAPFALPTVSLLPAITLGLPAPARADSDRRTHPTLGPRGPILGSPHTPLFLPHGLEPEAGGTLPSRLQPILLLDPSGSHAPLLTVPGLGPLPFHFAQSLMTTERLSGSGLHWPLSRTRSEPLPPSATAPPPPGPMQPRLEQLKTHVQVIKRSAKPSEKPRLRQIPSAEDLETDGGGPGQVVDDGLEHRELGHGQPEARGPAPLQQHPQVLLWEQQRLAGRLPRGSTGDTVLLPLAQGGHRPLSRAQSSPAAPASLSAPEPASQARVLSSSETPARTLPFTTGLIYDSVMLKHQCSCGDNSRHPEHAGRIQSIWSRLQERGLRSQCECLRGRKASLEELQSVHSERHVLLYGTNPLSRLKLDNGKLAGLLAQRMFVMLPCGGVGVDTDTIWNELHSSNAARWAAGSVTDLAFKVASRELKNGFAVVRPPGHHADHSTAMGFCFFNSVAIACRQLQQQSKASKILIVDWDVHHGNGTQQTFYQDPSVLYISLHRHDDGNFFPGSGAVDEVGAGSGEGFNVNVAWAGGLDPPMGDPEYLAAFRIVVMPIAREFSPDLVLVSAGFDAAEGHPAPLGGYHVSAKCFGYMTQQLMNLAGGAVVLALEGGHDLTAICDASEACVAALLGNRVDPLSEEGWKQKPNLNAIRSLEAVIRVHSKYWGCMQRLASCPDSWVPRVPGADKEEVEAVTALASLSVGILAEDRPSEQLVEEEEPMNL
In words: HDAC7 colorimetric assay, substrate Boc-Lys(TFA)-AMC. As to conditions: IC50 HDAC7, Table 1.

The target of a further assay is HDAC2 (Homo sapiens, UniProt Q92769). As to the kind of experiment: HDAC2 colorimetric assay, substrate Boc-Lys(Ac)-AMC. It is filed as biochemical. Conditions: Table 1.
The test system of assay [2] is breast cancer cell line MCF-7. In words: Growth inhibition of cancer cell line, resazurin assay. It counts as cell-based, Human. As to conditions: Homo sapiens, MCF7; Table 2, resazurin assay.
A further assay concerns the target T2, HDAC8 (Homo sapiens, UniProt Q9BY41).
T2 sequence (Q9BY41 1-377): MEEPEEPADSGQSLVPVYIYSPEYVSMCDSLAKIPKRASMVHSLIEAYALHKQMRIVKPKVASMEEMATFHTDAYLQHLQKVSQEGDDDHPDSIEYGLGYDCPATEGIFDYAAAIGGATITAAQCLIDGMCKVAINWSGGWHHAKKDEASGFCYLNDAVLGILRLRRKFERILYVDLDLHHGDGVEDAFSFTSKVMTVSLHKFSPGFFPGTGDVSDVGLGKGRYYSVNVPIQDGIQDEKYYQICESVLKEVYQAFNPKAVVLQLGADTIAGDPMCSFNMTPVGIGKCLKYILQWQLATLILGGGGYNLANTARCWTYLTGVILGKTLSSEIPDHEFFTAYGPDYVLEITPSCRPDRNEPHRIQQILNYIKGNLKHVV
In words: HDAC8 colorimetric assay, substrate Boc-Lys(TFA)-AMC. As to conditions: IC50 HDAC8, Table 1.

The target of a further assay is HDAC5 (Homo sapiens, UniProt Q9UQL6). In words: HDAC5 colorimetric assay, substrate Boc-Lys(TFA)-AMC.
The test system of assay [3] is T cell leukemia cell line JURKAT. As to the kind of experiment: Growth inhibition of cancer cell line, resazurin assay. Conditions: Homo sapiens, Jurkat, read-out: GI50 JURKAT.
Experimental: The following tumor cell lines were used: • Human uterine leiomyosarcoma cell line SKUT-1 (ATCC® HTB114™) • Human T cell leukemia cell line JURKAT (ATCC® TIB152™) • Human breast cancer cell line MCF-7 (ATCC® HTB22™)
Cells were cultured in Dulbecco's modified Eagle's medium (DMEM) supplemented with 10% FCS.
The target of a further assay is HDAC4 (Homo sapiens, UniProt P56524). It is filed as biochemical. As to conditions: Table 1.
Another assay concerns the target T3, HDAC6 (Homo sapiens, UniProt Q9UBN7).
T3 sequence (Q9UBN7 1-1215): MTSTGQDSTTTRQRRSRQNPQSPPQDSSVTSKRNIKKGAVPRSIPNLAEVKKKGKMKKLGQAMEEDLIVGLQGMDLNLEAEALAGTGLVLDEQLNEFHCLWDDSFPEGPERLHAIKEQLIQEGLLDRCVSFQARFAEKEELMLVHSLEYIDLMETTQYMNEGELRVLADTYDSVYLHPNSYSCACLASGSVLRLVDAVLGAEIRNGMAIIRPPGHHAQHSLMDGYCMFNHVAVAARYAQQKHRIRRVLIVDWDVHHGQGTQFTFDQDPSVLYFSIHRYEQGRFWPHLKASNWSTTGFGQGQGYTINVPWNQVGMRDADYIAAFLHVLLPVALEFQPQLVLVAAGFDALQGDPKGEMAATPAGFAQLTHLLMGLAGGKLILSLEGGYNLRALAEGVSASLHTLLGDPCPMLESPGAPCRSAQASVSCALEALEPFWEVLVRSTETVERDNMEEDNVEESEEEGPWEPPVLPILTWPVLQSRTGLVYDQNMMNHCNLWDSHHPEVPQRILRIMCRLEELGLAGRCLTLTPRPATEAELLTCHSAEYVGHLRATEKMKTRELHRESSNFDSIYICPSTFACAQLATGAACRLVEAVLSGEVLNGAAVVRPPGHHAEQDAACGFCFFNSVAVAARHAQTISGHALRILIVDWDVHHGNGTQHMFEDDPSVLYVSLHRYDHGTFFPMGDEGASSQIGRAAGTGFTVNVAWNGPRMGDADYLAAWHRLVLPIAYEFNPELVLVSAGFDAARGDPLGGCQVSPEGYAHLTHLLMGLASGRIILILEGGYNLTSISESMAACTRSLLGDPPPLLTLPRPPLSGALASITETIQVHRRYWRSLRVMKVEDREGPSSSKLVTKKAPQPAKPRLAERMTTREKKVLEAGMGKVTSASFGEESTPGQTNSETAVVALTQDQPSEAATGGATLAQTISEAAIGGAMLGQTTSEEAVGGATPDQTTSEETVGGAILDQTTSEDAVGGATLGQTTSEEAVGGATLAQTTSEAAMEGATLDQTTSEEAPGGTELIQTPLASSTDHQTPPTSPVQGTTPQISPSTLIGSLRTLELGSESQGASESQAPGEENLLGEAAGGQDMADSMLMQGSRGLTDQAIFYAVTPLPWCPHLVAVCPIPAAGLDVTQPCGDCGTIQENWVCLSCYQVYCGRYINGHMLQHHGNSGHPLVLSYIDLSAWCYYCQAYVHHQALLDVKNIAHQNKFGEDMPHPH
As to the kind of experiment: HDAC6 colorimetric assay, substrate Boc-Lys(Ac)-AMC. It counts as biochemical. As to conditions: Table 1; read-out: IC50 HDAC6.

Sequence of HDAC2 (Q92769 whole entry): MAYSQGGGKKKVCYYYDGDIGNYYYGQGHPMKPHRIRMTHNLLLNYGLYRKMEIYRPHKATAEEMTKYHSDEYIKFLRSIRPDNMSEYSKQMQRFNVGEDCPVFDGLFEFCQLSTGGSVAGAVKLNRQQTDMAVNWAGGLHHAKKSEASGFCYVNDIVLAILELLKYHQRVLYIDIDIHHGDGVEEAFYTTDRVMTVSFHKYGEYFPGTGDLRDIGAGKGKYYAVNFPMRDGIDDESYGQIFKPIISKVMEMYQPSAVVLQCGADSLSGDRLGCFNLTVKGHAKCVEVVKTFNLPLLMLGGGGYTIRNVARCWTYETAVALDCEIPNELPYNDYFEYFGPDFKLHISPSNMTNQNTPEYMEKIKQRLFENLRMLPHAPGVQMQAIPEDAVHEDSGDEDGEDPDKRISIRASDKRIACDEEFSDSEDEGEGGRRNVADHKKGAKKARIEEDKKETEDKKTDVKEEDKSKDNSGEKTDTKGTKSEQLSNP
Sequence of HDAC3 (O15379 whole entry): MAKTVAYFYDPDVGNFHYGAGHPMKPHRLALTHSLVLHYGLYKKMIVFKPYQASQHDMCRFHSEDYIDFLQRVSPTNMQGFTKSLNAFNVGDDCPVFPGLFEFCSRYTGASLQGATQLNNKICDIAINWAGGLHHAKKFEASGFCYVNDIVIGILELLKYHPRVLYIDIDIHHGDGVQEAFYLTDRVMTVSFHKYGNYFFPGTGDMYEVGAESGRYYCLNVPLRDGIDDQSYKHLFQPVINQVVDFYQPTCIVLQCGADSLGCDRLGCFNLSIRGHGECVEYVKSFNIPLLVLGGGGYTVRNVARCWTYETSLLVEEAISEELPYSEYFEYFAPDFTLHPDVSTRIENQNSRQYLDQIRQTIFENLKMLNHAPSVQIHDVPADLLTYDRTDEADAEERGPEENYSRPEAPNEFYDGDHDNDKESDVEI
Sequence of HDAC3 (Q9Y618 395-489 partner limits assumed): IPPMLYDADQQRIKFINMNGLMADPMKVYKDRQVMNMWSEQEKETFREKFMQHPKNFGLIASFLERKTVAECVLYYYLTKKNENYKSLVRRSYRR
Sequence of HDAC5 (Q9UQL6 whole entry): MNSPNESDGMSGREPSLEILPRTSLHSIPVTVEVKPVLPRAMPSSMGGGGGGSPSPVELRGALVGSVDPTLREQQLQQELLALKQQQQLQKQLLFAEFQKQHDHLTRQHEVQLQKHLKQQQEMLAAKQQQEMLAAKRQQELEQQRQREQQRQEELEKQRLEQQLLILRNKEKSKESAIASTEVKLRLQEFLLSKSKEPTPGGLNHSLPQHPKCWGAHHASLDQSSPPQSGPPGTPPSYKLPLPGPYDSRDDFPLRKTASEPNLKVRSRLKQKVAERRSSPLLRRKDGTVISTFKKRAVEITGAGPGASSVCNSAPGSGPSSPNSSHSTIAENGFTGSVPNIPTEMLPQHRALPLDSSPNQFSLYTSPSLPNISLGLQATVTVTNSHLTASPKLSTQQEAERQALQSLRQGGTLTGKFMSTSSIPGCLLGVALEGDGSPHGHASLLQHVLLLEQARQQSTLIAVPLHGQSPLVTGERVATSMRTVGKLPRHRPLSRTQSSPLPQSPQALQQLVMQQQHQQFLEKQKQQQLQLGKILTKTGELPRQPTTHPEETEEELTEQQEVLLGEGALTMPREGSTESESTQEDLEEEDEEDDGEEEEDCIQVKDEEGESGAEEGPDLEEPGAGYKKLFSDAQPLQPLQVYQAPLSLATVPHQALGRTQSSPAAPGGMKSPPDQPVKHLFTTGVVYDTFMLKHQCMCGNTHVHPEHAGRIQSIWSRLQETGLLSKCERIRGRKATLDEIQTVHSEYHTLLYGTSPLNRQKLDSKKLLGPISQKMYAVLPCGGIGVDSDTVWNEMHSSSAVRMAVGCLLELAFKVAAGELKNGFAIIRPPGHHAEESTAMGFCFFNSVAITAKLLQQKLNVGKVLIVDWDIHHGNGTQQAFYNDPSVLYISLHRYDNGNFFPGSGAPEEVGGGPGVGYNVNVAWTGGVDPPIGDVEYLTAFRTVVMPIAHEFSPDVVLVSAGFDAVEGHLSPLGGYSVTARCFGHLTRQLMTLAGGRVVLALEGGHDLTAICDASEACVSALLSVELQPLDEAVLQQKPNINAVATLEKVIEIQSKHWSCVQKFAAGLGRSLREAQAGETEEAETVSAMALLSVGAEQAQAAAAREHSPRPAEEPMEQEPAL
Sequence of HDAC4 (P56524 whole entry): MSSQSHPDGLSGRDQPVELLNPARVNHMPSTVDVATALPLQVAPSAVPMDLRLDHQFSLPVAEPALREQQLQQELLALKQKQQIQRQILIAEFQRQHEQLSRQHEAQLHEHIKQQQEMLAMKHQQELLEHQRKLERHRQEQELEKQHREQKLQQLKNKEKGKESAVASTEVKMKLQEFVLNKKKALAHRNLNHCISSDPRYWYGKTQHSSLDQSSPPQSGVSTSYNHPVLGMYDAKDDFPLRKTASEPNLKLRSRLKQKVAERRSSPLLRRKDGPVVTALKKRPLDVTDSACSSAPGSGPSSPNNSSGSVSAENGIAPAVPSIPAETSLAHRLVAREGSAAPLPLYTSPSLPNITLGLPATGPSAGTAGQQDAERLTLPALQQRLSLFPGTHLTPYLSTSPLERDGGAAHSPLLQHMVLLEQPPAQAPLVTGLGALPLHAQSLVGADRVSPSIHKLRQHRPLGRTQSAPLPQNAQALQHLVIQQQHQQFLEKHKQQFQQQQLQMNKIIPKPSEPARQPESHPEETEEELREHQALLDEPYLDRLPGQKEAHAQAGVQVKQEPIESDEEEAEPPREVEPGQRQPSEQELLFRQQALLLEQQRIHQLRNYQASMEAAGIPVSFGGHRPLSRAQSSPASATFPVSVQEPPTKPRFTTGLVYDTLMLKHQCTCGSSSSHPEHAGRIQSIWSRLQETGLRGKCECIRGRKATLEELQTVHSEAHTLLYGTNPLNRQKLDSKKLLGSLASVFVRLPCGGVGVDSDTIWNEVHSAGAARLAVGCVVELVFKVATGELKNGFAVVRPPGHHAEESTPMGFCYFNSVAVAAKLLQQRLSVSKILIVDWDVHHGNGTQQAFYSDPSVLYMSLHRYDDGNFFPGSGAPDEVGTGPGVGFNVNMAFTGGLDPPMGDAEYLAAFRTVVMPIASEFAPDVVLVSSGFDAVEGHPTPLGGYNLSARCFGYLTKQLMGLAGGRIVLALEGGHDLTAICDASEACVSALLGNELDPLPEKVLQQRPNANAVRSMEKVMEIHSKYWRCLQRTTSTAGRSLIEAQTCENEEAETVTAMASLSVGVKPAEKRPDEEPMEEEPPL
Sequence of HDAC1 (Q13547 whole entry): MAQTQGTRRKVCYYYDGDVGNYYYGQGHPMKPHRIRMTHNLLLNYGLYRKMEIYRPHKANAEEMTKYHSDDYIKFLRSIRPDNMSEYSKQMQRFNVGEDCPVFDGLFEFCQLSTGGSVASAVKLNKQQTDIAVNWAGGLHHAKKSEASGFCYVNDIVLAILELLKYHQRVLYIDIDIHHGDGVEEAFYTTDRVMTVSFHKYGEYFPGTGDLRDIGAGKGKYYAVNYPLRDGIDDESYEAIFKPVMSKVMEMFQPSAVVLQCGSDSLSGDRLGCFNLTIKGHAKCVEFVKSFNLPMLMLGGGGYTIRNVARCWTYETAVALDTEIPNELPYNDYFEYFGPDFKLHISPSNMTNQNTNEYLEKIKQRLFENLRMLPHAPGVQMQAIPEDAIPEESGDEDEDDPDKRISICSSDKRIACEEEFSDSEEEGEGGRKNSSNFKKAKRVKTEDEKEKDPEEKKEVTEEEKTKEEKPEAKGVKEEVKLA
Experimental for HDAC1: 1 nM of HDAC1 was incubated with increasing concentrations of the respective compound for 30 minutes at 30° C. The reaction was initiated by addition of 50 μM of the substrate Boc-Lys(Ac)-AMC. After an incubation of 60 minutes the reaction was stopped by addition of 20 μM SAHA and the deacetylated substrate was converted into a fluorescent product by the addition of trypsin.
Experimental for HDAC8: 1 nM of HDAC4 was incubated with increasing concentrations of the respective compound for 30 minutes at 30° C. The reaction was initiated by addition of 20 μM of the substrate Boc-Lys(trifluoracetyl)-AMC. After an incubation of 60 minutes the reaction was stopped by addition of 20 μM SAHA and the deacetylated substrate was converted into a fluorescent product by the addition of trypsin.

Turning to `N=C1Sc2cc(Br)ccc2C2=NCCCN12` [Compound 13g, 9-Bromo-3,4-Dihydrobenzo[e]Pyrimido[1,2-c][1,3]Thiazin-6(2H)-Imine], the IC50 was 1.7 ± 0.2 µM at HDAC1; 6.7 ± 0.4 µM at HDAC3; 1.7 ± 0.2 µM against HDAC7; greater than 50 µM at HDAC2; 0.0029 ± 0.0001 µM against HDAC8; 0.14 ± 0.02 µM at HDAC5. Also, the values for the concentration for half-maximal inhibition (IC50) against HDAC4 and at HDAC6 were 2 ± 0.1 µM and 2.8 ± 0.7 µM, respectively. The 50% growth inhibitory concentration (GI50) in assay [1] is 76 ± 7 µM; in assay [2], greater than 1000 µM; in [3], 30 ± 3 µM.

For the compound `N=C1Sc2c(F)cccc2C2=NCCCN12` [Compound 13h, 8-Fluoro-3,4-dihydrobenzo[e]pyrimido[1,2-c][1,3]thiazin-6(2H)-imine], the IC50 is 35 ± 3 µM on HDAC1; greater than 50 µM on HDAC3; 5 ± 1 µM at HDAC7; greater than 50 µM against HDAC2; 0.017 ± 0.001 µM against HDAC8; 0.74 ± 0.16 µM on HDAC5. Besides, the values for the half-maximal inhibitory concentration (IC50) at HDAC4 and at HDAC6 were 5.1 ± 0.6 µM and 5.2 ± 1.1 µM, respectively. Moreover, the GI50 in assay [1] was greater than 1000 µM; in assay [2], greater than 1000 µM; in [3], 42 ± 3 µM.

Consider `N=C1Sc2c(F)cccc2C2=NCCN12` [Compound 13i, 7-Fluoro-2H-Benzo[e]Imidazo[1,2-c][1,3]Thiazin-5(3H)-Imine], for which the IC50 against HDAC1 is greater than 50 µM; against HDAC3, greater than 50 µM; at HDAC7, greater than 50 µM; against HDAC2 it was greater than 50 µM; at HDAC8, 9.2 ± 0.3 µM; at HDAC5, greater than 50 µM. Further, the IC50 against HDAC4 and at HDAC6 was greater than 50 µM throughout. For the same compound, the GI50 in [1] worked out at 109 ± 29 µM; in assay [2] it was 16 ± 3 µM; in assay [3] it was 24 ± 3 µM.

As for `N=C1Sc2cccc(Br)c2C2=NCCCN12` [Compound 13j, 11-Bromo-3,4-Dihydrobenzo[e]Pyrimido[1,2-c][1,3]Thiazin-6(2H)-Imine], the concentration for half-maximal inhibition (IC50) on HDAC1 was 2.6 ± 0.3 µM; at HDAC3, 7 ± 0.5 µM; at HDAC7 it was 2 ± 0.7 µM; at HDAC2 it was 16 ± 2 µM; on HDAC8, 0.0063 ± 0.0004 µM; at HDAC5, 0.038 ± 0.001 µM. Further, the concentration for half-maximal inhibition (IC50) was 2.3 ± 0.3 µM at HDAC4 and 1.4 ± 0.2 µM on HDAC6. Moreover, the GI50 in assay [1] is 16 ± 3 µM; in assay [2], 11 ± 3 µM; in assay [3], 17 ± 3 µM.

As to `Cc1ccc2c(c1)SC(=N)N1CCCN=C21` [Compound 13k, 9-Methyl-3,4-Dihydrobenzo[e]Pyrimido[1,2-c][1,3]Thiazin-6(2H)-Imine], the IC50 at HDAC1 was 5.8 ± 0.3 µM; on HDAC3 it was 26 ± 4 µM; against HDAC7, 2.5 ± 0.1 µM; against HDAC2, greater than 50 µM; against HDAC8 it was 0.0054 ± 0.0004 µM; on HDAC5, 0.24 ± 0.01 µM. Besides, the IC50 was found to be 7.6 ± 0.8 µM against HDAC4 and 1.3 ± 0.3 µM on HDAC6. For the same compound, the concentration for 50% growth inhibition (GI50) in assay [1] came out at 45 ± 16 µM; in assay [2], 44 ± 12 µM; in assay [3], 36 ± 4 µM.

For the compound `N=C1Sc2ccc(F)cc2C2=NCCCN12` [Compound 13l, 10-Fluoro-3,4-Dihydrobenzo[e]Pyrimido[1,2-c][1,3]Thiazin-6(2H)-Imine], the IC50 turned out to be 2.1 ± 0.2 µM against HDAC1; 5.3 ± 0.4 µM at HDAC3; 1.5 ± 0.4 µM against HDAC7; 30 ± 2 µM against HDAC2; 0.006 ± 0.0006 µM against HDAC8; 0.046 ± 0.003 µM at HDAC5. Further, the IC50 was determined as 2.2 ± 0.3 µM against HDAC4 and 0.65 ± 0.11 µM at HDAC6. Moreover, the GI50 in [1] amounted to 24 ± 5 µM; in assay [2], 79 ± 11 µM; in assay [3], 16 ± 2 µM.

On to `Cc1cccc2c1C1=NCCCN1C(=N)S2` [Compound 13m, 11-Methyl-3,4-Dihydrobenzo[e]Pyrimido[1,2-c][1,3]Thiazin-6(2H)-Imine], for which the IC50 against HDAC1 was 3.7 ± 0.4 µM; at HDAC3 it was 9.6 ± 0.7 µM; against HDAC7 it was 1.3 ± 0.2 µM; against HDAC2, greater than 50 µM; at HDAC8, 0.0043 ± 0.0005 µM; against HDAC5 it was 0.038 ± 0.002 µM. Moreover, the IC50 turned out to be 3.2 ± 0.5 µM on HDAC4 and 1.3 ± 0.3 µM on HDAC6. Further, the values for the GI50 in [1], in assay [2] and in [3] were 35 ± 2 µM, 179 ± 66 µM and 23 ± 2 µM, respectively.
